According to patent US20060128769A1, “Thiazoyl biphenyl amides” (priority 2002, published 2006):
Like-named read-outs stand apart in the source and are kept apart here.

Legend:
[1] = logP determination by HPLC on a reversed-phase column (C 18), EEC Directive 79/831 Annex V.A8; assay type: physicochemical; conditions: reversed-phase HPLC column (C 18)
Description: The logP values given in the preparation examples and tables above are determined in accordance with EEC Directive 79/831 Annex V.A8 by HPLC (High Performance Liquid Chromatography) using a reversed-phase column (C 18). Temperature: 43° C. The determination is carried out in the acidic range at pH 2.3 using the mobile phases 0.1% aqueous phosphoric acid and acetonitrile; linear gradient from 10% acetonitrile to 90% acetonitrile. Calibration is carried out using unbranched alkan-2-ones (having 3 to 16 carbon atoms) with known logP values (determination of the logP values by the retention times using linear interpolation between two successive alkanones).

Sphaerotheca fuliginea = experiment: Sphaerotheca test (cucumber)/protective; assay type: in vivo; conditions: Podosphaera fuliginea, 168 h, protective, application rate 100 g/ha, evaluation 7 days after inoculation, read-out: % efficacy
Description: • Solvents: 24.5 parts by weight of acetone 24.5 parts by weight of dimethylacetamide • Emulsifier: 1 part by weight of alkylaryl polyglycol ether
(§1) To produce a suitable preparation of active compound, 1 part by weight of active compound is mixed with the stated amounts of solvents and emulsifier, and the concentrate is diluted with water to the desired concentration.
To test for protective activity, young plants are sprayed with the preparation of active compound at the stated application rate. After the spray coating has dried on, the plants are inoculated with an aqueous spore suspension of Sphaerotheca fuliginea. The plants are then placed in a greenhouse at about 23° C. and a relative atmospheric humidity of about 70%.
Evaluation is carried out 7 days after the inoculation. 0% means an efficacy which corresponds to that of the control, whereas an efficacy of 100% means that no infection is observed.

Botrytis cinerea = experiment: Botrytis test (bean)/protective; assay type: in vivo; conditions: 48 h, protective, application rate 500 g/ha, evaluation 2 days after inoculation, read-out: % efficacy
Description: (§2) • Solvents: 24.5 parts by weight of acetone 24.5 parts by weight of dimethylacetamide • Emulsifier: 1.0 part by weight of alkylaryl polyglycol ether
as §1
To test for protective activity, young plants are sprayed with the preparation of active compound at the stated application rate. After the spray coating has dried on, 2 small pieces of agar colonized by Botrytis cinerea are placed onto each leaf. The inoculated plants are placed in a dark chamber at about 20° C. and 100% relative atmospheric humidity.
2 days after the inoculation, the size of the infected areas on leaves is evaluated. 0% means an efficacy which corresponds to that of the control, whereas an efficacy of 100% means that no infection is observed.

Venturia inaequalis = experiment: Venturia test (apple)/protective; assay type: in vivo; conditions: 240 h, protective, application rate 100 g/ha, evaluation 10 days after inoculation, read-out: % efficacy
Description: as §2, §1
To test for protective activity, young plants are sprayed with the preparation of active compound at the stated application rate. After the spray coating has dried on, the plants are inoculated with an aqueous conidia suspension of the apple scab pathogen Venturia inaequalis and then remain in an incubation cabin at about 20° C. and 100% relative atmospheric humidity for one day.
The plants are then placed in a greenhouse at about 21° C. and a relative atmospheric humidity of about 90%.
Evaluation is carried out 10 days after the inoculation. 0% means an efficacy which corresponds to that of the control, whereas an efficacy of 100% means that no infection is observed.

Alternaria solani = experiment: Alternaria test (tomato)/protective; assay type: in vivo; conditions: 168 h, protective, application rate 750 g/ha, evaluation 7 days after inoculation, read-out: % efficacy
Description: • Solvent: 49 parts by weight of N,N-dimethylformaide • Emulsifier: 1 part by weight of alkylaryl polyglycol ether To produce a suitable preparation of active compound, 1 part by weight of active compound is mixed with the stated amounts of solvent and emulsifier, and the concentrate is diluted with water to the desired concentration. To test for protective activity, young tomato plants are sprayed with the preparation of active compound at the stated application rate. 1 day after the treatment, the plants are inoculated with an aqueous spore suspension of Alternaria solani and then remain at 100% relative humidity for 24 hours. The plants then remain at about 96% relative atmospheric humidity and a temperature of 20° C. Evaluation is carried out 7 days after the inoculation. 0% means an efficacy which corresponds to that of the control, whereas an efficacy of 100% means that no infection is observed.

[2] = pH 2.3, HPLC reversed-phase C 18, 43° C., 0.1% aqueous phosphoric acid/acetonitrile, read-out: logP (pH 2.3)
[3] = Table 1, acidic range pH 2.3, HPLC reversed-phase C 18, 43° C., read-out: logP

## Cc1nc(C(F)F)c(C(=O)N(C)c2ccccc2-c2ccc(Cl)cc2)s1 [Example 2]
[1]; [2]
  chromatographic logP: 3.34
Sphaerotheca fuliginea
  Emax at 100 g/ha: 95%

## Cc1nc(C(F)F)c(C(=O)Nc2ccccc2-c2ccc(Br)cc2)s1 [II-1, N-(4′-bromo-1,1′-biphenyl-2-yl)-2-methyl-4-(difluoromethyl)-1,3-thiazole-5-carboxamide]
[1]; [2]
  chromatographic logP: 3.34
other
  melting point: 151 °C

## Cc1nc(C(F)F)c(C(=O)Nc2ccccc2-c2ccc(Cl)cc2)s1 [II-2, N-(4′-chloro-1,1′-biphenyl-2-yl)-2-methyl-4-(difluoromethyl)-1,3-thiazole-5-carboxamide]
[1]; [2]
  chromatographic logP: 3.26
other
  melting point: 144 °C

## CC(=O)N(C(=O)c1sc(C)nc1C(F)F)c1ccccc1-c1ccc(Br)cc1 [Example 1, N-acetyl-N-(4′-bromo-1,1′-biphenyl-2-yl)-4-(difluoromethyl)-2-methyl-1,3-thiazole-5-carboxamide]
[1]; [2]
  chromatographic logP: 3.61
Botrytis cinerea
  Emax at 500 g/ha: 98%
Sphaerotheca fuliginea
  Emax at 100 g/ha: 100%
Venturia inaequalis
  Emax at 100 g/ha: 100%

## Cc1nc(C(F)F)c(C(=O)N(C)c2ccccc2-c2ccc(Br)cc2)s1 [Example 6]
[1]; [3]
  chromatographic logP: 3.44
Sphaerotheca fuliginea
  Emax at 100 g/ha: 100%

## Cc1nc(C(F)F)c(C(=O)N(C(=O)c2sc(C)nc2C(F)F)c2ccccc2-c2cc(Cl)cc(Cl)c2)s1 [Example 4]
[1]; [3]
  chromatographic logP: 4.28
Alternaria solani
  Emax at 750 g/ha: 95%
Botrytis cinerea
  Emax at 500 g/ha: 94%
Sphaerotheca fuliginea
  Emax at 100 g/ha: 100%
Venturia inaequalis
  Emax at 100 g/ha: 99%
